Laboratory results from PubChem BioAssay AID2060499 (Molecular Pharmacology Branch, DTP, NCI, 2025).
pIC50: −log10 of the molar value.

Tested on: 777334-354-R2-J4-PDC tumor spheroids with HUVEC/MSC, viability
Test: Anticancer human tumor 777334-354-R2-J4-PDC patient-derived pancreatic adenocarcinoma cell line growth inhibition [GQUAD]
Settings: for pIC50: curve of first compound; for viability, T/C: stronger effect = lower value
Description: DNA G-quadruplex Stabilizer Agents in Combinations in Complex Spheroids
A high-throughput screen of multi-cell type tumor spheroids was designed to identify active combinations of DNA G-quadruplex stabilizer agents and targeted small molecules. Complex spheroids include a stromal component modeled by human endothelial cells (HUVEC) and fibroblasts modeled by human mesenchymal stem cells (MSCs). The concentration ranges selected for each drug and investigational agent were based upon clinically achievable concentrations if the clinical Cmax of the agent was known.
Compounds. The drugs and investigational agents: pidnarulex (CX-5461; NSC782164), APTO-253 (NSC789042), BRACO-19 (NSC847499), peposertib (NSC802822), ceralasertib (NSC780249), elimusertib (NSC800525), camonsertib (NSC841442), AZD-1390 (NSC803789), olaparib (NSC753686), talazoparib (NSC767125), ART-558 (NSC835418), sotorasib (NSC818433), MRTX-1133 (NSC836407), SN-38 (NSC673596), topotecan (NSC609699), etoposide (NSC141540), doxorubicin (NSC123127), gemcitabine (NSC613327), 5-fluorouracil (NSC19893), paclitaxel (NSC125973), vemurafenib (NSC761431), panobinostat (NSC761190), R-306465 (JNJ-16241199; NSC773264), adavosertib (NSC754352), TP-3654 (NSC805149), carboplatin (NSC241240), KSQ-4279 (NSC840948), and staurosporine (NSC755774) were obtained from the National Cancer Institute (NCI) Developmental Therapeutics Program Chemical Repository (34). The FDA-approved anticancer drug set is available from the NCI Developmental Therapeutics Program. […] The stock solutions were prepared in dimethyl sulfoxide (DMSO, Sigma-Aldrich, St. Louis, MO, cat. D2650) at 800-fold the tested concentration and stored at -70 degrees C prior to their use. All drugs and investigational agents were tested over a range starting from a high concentration at or near the clinical Cmax and decreasing in half-log increments. If the clinical Cmax for an agent had not been determined, the highest concentration tested was 10 microM.
2.3 Cell Culture. All cells were maintained in an incubator at 37 degrees C and 5% CO2 with 95% humidity. The PDC lines were cultured according to standard operating procedures established by the NCI PDMR. All PDCs were thawed and cultured in Matrigel-coated flasks prepared with a working solution of 1X Ham's F-12 nutrient mix, without supplementation (Invitrogen, cat. 11765054), 100 U/mL penicillin-streptomycin (Invitrogen, cat. 15140122), and 2.5% Matrigel (Corning Inc., cat. 354248) for the first three passages. The 857933-349-R-J2-PDC line was cultured in 6C/Colon 1B media, which includes advanced DMEM/F-12 (Thermo Fisher Scientific, cat. 12634028), 10 mM HEPES (Thermo Fisher Scientific, cat. 15630080), 1X GlutaMAX supplement (Thermo Fisher Scientific, cat. 35050061), 0.1 mg/mL primocin (InvivoGen, cat. ant-pm-2), 10% defined fetal bovine serum, heat inactivated (HyClone Laboratories Inc., cat. SH30070.03HI), 50% L-WRN conditioned media (ATCC, cat. CRL-3276), 1.25 mM N-Acetyl-L-cysteine (Sigma-Aldrich, cat. A9165), 10 mM nicotinamide (Sigma-Aldrich, cat. N0636), 1X B-27 supplement (Thermo Fisher Scientific, cat. 17504044), 1X N-2 supplement (Thermo Fisher Scientific, cat. 17502048), 10 microM Y-27632 dihydrochloride (Tocris Bioscience, cat. 1254), and 50 ng/mL human EGF recombinant protein (Thermo Fisher Scientific, cat. PHG0311). The 485176-168-R4-J1-PDC line was cultured in Panc media, which includes all 6C/Colon 1B media components plus 100 ng/mL human FGF-10 (Thermo Fisher Scientific, cat. 100-26), 500 nM SB-431542 (Selleckchem, cat. S1067), and gastrin (Tocris, cat. 3006).
[…]
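Also: spheroids exposed to compounds for 7 days before readout.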

Work on CC(C)n1c(=O)n(C)c2cnc3cc(F)c(-c4ccc(OCCCN5CCCCC5)nc4)cc3c21 + CN(C)c1ccc(Nc2c3ccc(NC(=O)CCN4CCCC4)cc3nc3cc(NC(=O)CCN4CCCC4)ccc23)cc1 yielded a pIC50 (second compound 0.0316 µM) of less than 5.00, a pIC50 (second compound 0.1 µM) of less than 5.00 and a pIC50 (second compound 0.316 µM) of less than 5.00. For the same compound, the pIC50 (second compound 1 µM) was less than 5.00, the pIC50 (second compound 3.16 µM) was less than 5.00 and the pIC50 (second compound 10 µM) was 5.78. It also gave a viability, T/C (second compound 0.0316 µM, first compound 0.0316 µM) of 103%, a viability, T/C (second compound 0.0316 µM, first compound 0.1 µM) of 94.4% and a viability, T/C (second compound 0.0316 µM, first compound 0.316 µM) of 99.3%. It also gave a viability, T/C (second compound 0.0316 µM, first compound 1 µM) of 107%, a viability, T/C (second compound 0.0316 µM, first compound 3.16 µM) of 115% and a viability, T/C (second compound 0.0316 µM, first compound 10 µM) of 92.3%. The viability, T/C (second compound 0.1 µM, first compound 0.0316 µM) was 94%, the viability, T/C (second compound 0.1 µM, first compound 0.1 µM) was 93% and the viability, T/C (second compound 0.1 µM, first compound 0.316 µM) was 115%. For the same compound, the viability, T/C (second compound 0.1 µM, first compound 1 µM) was 104%, the viability, T/C (second compound 0.1 µM, first compound 3.16 µM) was 113% and the viability, T/C (second compound 0.1 µM, first compound 10 µM) was 93.4%. The viability, T/C (second compound 0.316 µM, first compound 0.0316 µM) was 98.2%, the viability, T/C (second compound 0.316 µM, first compound 0.1 µM) was 111% and the viability, T/C (second compound 0.316 µM, first compound 0.316 µM) was 100%. For the same compound, the viability, T/C (second compound 0.316 µM, first compound 1 µM) was 107%, the viability, T/C (second compound 0.316 µM, first compound 3.16 µM) was 105% and the viability, T/C (second compound 0.316 µM, first compound 10 µM) was 77.5%. The viability, T/C (second compound 1 µM, first compound 0.0316 µM) was 81.7%, the viability, T/C (second compound 1 µM, first compound 0.1 µM) was 85.6% and the viability, T/C (second compound 1 µM, first compound 0.316 µM) was 101%. It also gave a viability, T/C (second compound 1 µM, first compound 1 µM) of 90%, a viability, T/C (second compound 1 µM, first compound 3.16 µM) of 103% and a viability, T/C (second compound 1 µM, first compound 10 µM) of 75.2%. The viability, T/C (second compound 3.16 µM, first compound 0.0316 µM) was 84.9%, the viability, T/C (second compound 3.16 µM, first compound 0.1 µM) was 75.3% and the viability, T/C (second compound 3.16 µM, first compound 0.316 µM) was 85.6%. For the same compound, the viability, T/C (second compound 3.16 µM, first compound 1 µM) was 83.2%, the viability, T/C (second compound 3.16 µM, first compound 3.16 µM) was 91.8% and the viability, T/C (second compound 3.16 µM, first compound 10 µM) was 62.1%. The viability, T/C (second compound 10 µM, first compound 0.0316 µM) was 81.5%, the viability, T/C (second compound 10 µM, first compound 0.1 µM) was 75% and the viability, T/C (second compound 10 µM, first compound 0.316 µM) was 61.4%. For the same compound, the viability, T/C (second compound 10 µM, first compound 1 µM) was 58.6%, the viability, T/C (second compound 10 µM, first compound 3.16 µM) was 42.2% and the viability, T/C (second compound 10 µM, first compound 10 µM) was 31.7%.
